The subject of one assay is K562. Kind of assay: Cytotoxicity against human K562 cells by disk diffusion soft agar colony formation assay. Format: functional, cell-based.
The subject of a further assay is SW 1116. The assay is described as follows: Cytotoxicity against human SW1116 cells by disk diffusion soft agar colony formation assay. Type of assay: functional, cell-based. (In general: Agar diffusion results depend on both activity and mobility in agar.)

On to `C/C1=C\C(=O)OC[C@]23CCC(CO)=C[C@H]2O[C@@H]2C[C@@H](OC(=O)/C=C\C=C\C(=O)OCC1)[C@@]3(C)[C@]21CO1`, for which the IC50 (commonly the concentration that inhibits the measured activity by half) with K562 (k562) stood at 0.0064 µM; in the assay on SW 1116 (sw 1116), 0.16 µM.

On to `C[C@@H]1CCOC(=O)/C=C/C=C\C(=O)O[C@@H]2C[C@H]3O[C@@H]4C=C(CO)CC[C@]4(COC(=O)[C@H]1O)[C@]2(C)[C@]31CO1` [16-HYDROXY VERRUCARIN A], for which the IC50 turned out to be 0.0017 µM in the assay with K562 (k562) and 0.012 µM in the assay on SW 1116 (sw 1116).

Turning to `CC1=C[C@H]2O[C@@H]3C[C@H]4OC(=O)/C=C\C=C\[C@H]([C@@H](C)O)OCC/C(CO)=C/C(=O)OC[C@@]2(CC1)[C@]4(C)[C@]31CO1`, the IC50 with K562 (k562) amounted to 3.15 µM; in the assay on SW 1116 (sw 1116), 7.92 µM.

With `CC(=O)[C@@]12CC/C=C\C(=O)O[C@@H]3C[C@H]4O[C@@H]5[C@@H]6C[C@@]4(O)[C@@]3(C)[C@]5(CC[C@]6(C)O)COC(=O)/C=C(\CCO1)[C@@H]2O`, the IC50 is 0.97 µM with K562 (Homo sapiens, K562) and 10.6 µM in the assay on SW 1116 (Homo sapiens, SW 1116).

Take `C[C@]12[C@H]3C[C@H]4O[C@@H]5[C@H](C[C@]41O)[C@@](C)(O)CC[C@@]52COC(=O)/C=C1\CCO[C@]2(CC/C=C\C(=O)O3)[C@@H]1OC(=O)[C@@H]2O`: the half-maximal inhibitory concentration (IC50) in the assay with K562 (Homo sapiens, K562) came to 16 µM; in the assay with SW 1116 (Homo sapiens, SW 1116), 21.1 µM.

With `CC1=C[C@H]2O[C@@H]3C[C@H]4OC(=O)/C=C\C=C\C(=O)OCC[C@@H](C)[C@H](O)C(=O)OC[C@@]2(CC1)[C@]4(C)[C@]31CO1` [VERRUCARIN A], the IC50 in the assay with K562 (k562) is 0.003 µM; in the assay with SW 1116 (sw 1116), 0.0018 µM.

Consider `CC1=C[C@H]2O[C@@H]3C[C@H]4OC(=O)/C=C\CC[C@]5(C(=O)CO)OCC/C(=C\C(=O)OC[C@@]2(CC1)[C@]4(C)[C@]31CO1)[C@H]5O`, for which the half-inhibitory concentration (IC50) in the assay with K562 (k562) is 0.92 µM; in the assay with SW 1116 (sw 1116), 0.55 µM.

For the compound `CC(=O)[C@@]12CC/C=C\C(=O)O[C@@H]3C[C@H]4O[C@@H]5C=C(CO)CC[C@]5(COC(=O)/C=C(\CCO1)[C@H]2O)[C@]3(C)[C@]41CO1`, the half-inhibitory concentration (IC50) came to 2.87 µM with K562 (k562) and 0.18 µM in the assay with SW 1116 (sw 1116).

As for `CC1=C[C@H]2O[C@@H]3C[C@H]4OC(=O)/C=C\CC[C@@]5([C@H](C)O)OCC/C(=C\C(=O)OC[C@@]2(CC1)[C@]4(C)[C@]31CO1)[C@@H]5O`, the IC50 in the assay on K562 (k562) came out at 0.51 µM; in the assay with SW 1116 (sw 1116), 2.27 µM.

With `CC(=O)[C@@]12CC/C=C\C(=O)O[C@@H]3C[C@H]4O[C@@H]5[C@@H]6C[C@@]4(O)[C@@]3(C)[C@]5(CC[C@]6(C)O)COC(=O)/C=C(\CCO1)[C@H]2O`, the IC50 was 31.6 µM with K562 (Homo sapiens, K562) and 22.7 µM with SW 1116 (Homo sapiens, SW 1116).

With `CC1=C[C@H]2O[C@@H]3C[C@H]4OC(=O)/C=C\C=C\[C@@H]([C@@H](C)O)OCC/C(C)=C/C(=O)OC[C@@]2(CC1)[C@]4(C)[C@]31CO1`, the 50% inhibitory concentration (IC50) in the assay with K562 (k562) was found to be 0.001 µM; with SW 1116 (sw 1116), 0.033 µM.

`CC1=C[C@H]2O[C@@H]3C[C@H]4OC(=O)/C=C\C=C\[C@H]([C@@H](C)O)OCC/C(C)=C/C(=O)OC[C@@]2(CC1)[C@]4(C)[C@]31CO1` [RORIDIN E]: the IC50 with K562 (k562) was 0.54 µM; with SW 1116 (sw 1116) it was 0.039 µM.

As for `C/C1=C\C(=O)OC[C@]23CCC(CO)=C[C@H]2O[C@@H]2C[C@@H](OC(=O)/C=C\C=C\[C@H]([C@@H](C)O)OCC1)[C@@]3(C)[C@]21CO1`, the IC50 was 7.13 µM in the assay with K562 (k562) and 9.06 µM in the assay with SW 1116 (sw 1116).

Consider `C[C@]12[C@H]3C[C@H]4O[C@@H]5[C@H](C[C@]41O)[C@@](C)(O)CC[C@@]52COC(=O)/C=C1\CCO[C@@]2(CC/C=C\C(=O)O3)[C@H](O)C(=O)O[C@H]12`, for which the 50% inhibitory concentration (IC50) came to 16 µM in the assay on K562 (Homo sapiens, K562) and 11.6 µM with SW 1116 (Homo sapiens, SW 1116).

Consider `O=c1[nH]cc(F)c(=O)[nH]1` [FLUOROURACIL], for which the IC50 with K562 (Homo sapiens, K562) was 32.9 µM; with SW 1116 (Homo sapiens, SW 1116) it was 76.9 µM.

Consider `C[C@]12[C@H]3C[C@H]4O[C@@H]5[C@H](C[C@]41O)[C@@](C)(O)CC[C@@]52COC(=O)/C=C1\CCO[C@]2(CC/C=C\C(=O)O3)[C@@H]1O[C@H](O)[C@H]2O`, for which the IC50 with K562 (Homo sapiens, K562) was found to be 8.2 µM; with SW 1116 (Homo sapiens, SW 1116), 0.57 µM.

For the compound `CC1=C[C@H]2O[C@@H]3C[C@@H](OC(=O)/C=C\C=C\C(OCCC4=CC(=O)OC4)[C@@H](C)O)[C@](C)([C@@]2(COC(=O)/C=C(\C)CCO)CC1)[C@]31CO1` (stereo partly specified), the IC50 with K562 (k562) worked out at 0.0012 µM; in the assay on SW 1116 (sw 1116), 0.0031 µM.

On to `CC(=O)O[C@@H]1/C2=C/C(=O)OC[C@@]34CC[C@](C)(O)[C@H]5C[C@]6(O)[C@@H](C[C@@H](OC(=O)/C=C\CC[C@]1(C(C)=O)OCC2)[C@]36C)O[C@H]54`, for which the IC50 in the assay on K562 (Homo sapiens, K562) is 1.53 µM; with SW 1116 (Homo sapiens, SW 1116) it was 4.25 µM.

As for `CC(=O)[C@@]12CC/C=C\C(=O)O[C@@H]3C[C@H]4O[C@@H]5C=C(C)CC[C@]5(COC(=O)/C=C(\CCO1)[C@H]2O)[C@]3(C)[C@]41CO1`, the 50% inhibitory concentration (IC50) in the assay with K562 (k562) was determined as 0.0013 µM; with SW 1116 (sw 1116), 0.0015 µM.

In the case of `CC1=C[C@H]2O[C@@H]3C[C@H]4OC(=O)/C=C\CC[C@@]56OCC/C(=C\C(=O)OC[C@@]2(CC1)[C@]4(C)[C@]31CO1)[C@H]5O[C@@H](O)[C@@H]6O`, the concentration for half-maximal inhibition (IC50) was found to be 0.0011 µM with K562 (k562) and 0.0015 µM in the assay on SW 1116 (sw 1116).

In the case of `C[C@]12[C@H]3C[C@H]4O[C@@H]5[C@H](C[C@]41O)[C@@](C)(O)CC[C@@]52COC(=O)/C=C1\CCO[C@@](C(=O)CO)(CC/C=C\C(=O)O3)[C@@H]1O`, the 50% inhibitory concentration (IC50) with K562 (Homo sapiens, K562) stood at 26.7 µM; in the assay with SW 1116 (Homo sapiens, SW 1116), 23.1 µM.

Take `CC1=C[C@H]2O[C@@H]3C[C@H]4OC(=O)/C=C\C=C\[C@H]([C@@H](C)O)OCC[C@@H](C)[C@H](O)C(=O)OC[C@@]2(CC1)[C@]4(C)[C@]31CO1` [RORIDIN A]: the IC50 in the assay with K562 (k562) came out at 0.0071 µM; in the assay on SW 1116 (sw 1116), 0.21 µM.

Turning to `CC1=C[C@H]2O[C@@H]3C[C@H]4OC(=O)/C=C\CC[C@@]56OCC/C(=C\C(=O)OC[C@@]2(CC1)[C@]4(C)[C@]31CO1)[C@H]5OC(=O)[C@@H]6O`, the IC50 in the assay on K562 (k562) was determined as 0.056 µM; in the assay with SW 1116 (sw 1116), 0.2 µM.

Source of the values: ChEMBL document CHEMBL4392866, “Cytotoxic Trichothecene Macrolides Produced by the Endophytic Myrothecium roridum” (J Nat Prod, 2019).
